The values that follow come from patent US20230138047A1, “ANTI-CLAUDIN-1 MONOCLONAL ANTIBODIES FOR THE PREVENTION AND TREATMENT OF FIBROTIC DISEASES” (Université de Strasbourg, priority 2019, published 2023).

The test system of series [1] is bleomycin-induced pulmonary fibrosis. The protocol:
Materials and Methods Protocol to Examine the Effects of an anti-human CLDN1 Monoclonal Antibody in Preventing Fibrosis in a Bleomycin-Induced Pulmonary Fibrosis Model. Pathogen-free 6 weeks old female C57BL/6Jmice were obtained from Japan SLC, Inc. (Japan). At Day 0, 54 mice were induced to develop pulmonary fibrosis by a single intratracheal administration of bleomycin hydrochloride (BLM, Nippon Kayaku, Japan) in saline at a dose of 3.0 mg/kg, in a volume of 50 μL per animal using Microsprayer® (Penn-Century, USA). In each slot, the mice were randomized into 3 groups of 18 mice based on their body weight on the day before the start of treatment at Day 0. Individual body weights were measured daily during the experimental period. Survival, clinical signs and behaviour of mice were monitored daily.
Mice groups. Group 1 (Vehicle): Eighteen bleomycin-induced pulmonary fibrosis model mice were intraperitoneally administered vehicle [Saline] in a volume of […] once weekly from Day 0 to 20. […] Group 3 (Dexamethasone): Eighteen bleomycin-induced pulmonary fibrosis model mice were orally administered pure water supplemented with Dexamethasone at a dose of 0.25 mg/kg (in a volume of 10 mL/kg) once daily from Day 0 to 20. Mice in all groups were sacrificed at Day 21.
Survival, biochemical and histological analysis. […]

The test system of series [2] is BLM-induced skin fibrosis. Nature of the series: Bleomycin-induced skin fibrosis model. Format: in vivo, mouse. Conditions: 50 mg/kg i.p., BLM for 4 weeks. The text has this: BLM Model and Sampling. As indicated on the scheme presented on FIG. 6, the BLM is subcutaneously injected every other day into the pre-shaved back of mice for 4 weeks. The injection sites are located at the corners of a 1.5 cm^2-square shaved area and used in rotation (corner 1, corner 2, corner 3, corner 4, corner 1, etc). A 5-mm circle is clipped using a dermal punch and used for collagen quantification. The remaining intact area is cut out into 3 rectangles, one for histology and two for biochemical analyses.
Effects of Imatinib on Skin Fibrosis. Imatinib mesylate is a tyrosine kinase inhibitor against c-Abl, PDGFR, and several other tyrosine kinases (Alfiya et al., Arthritis Rheum., 2009, 60: 219). c-Abl is crucial for induction of ECM proteins through the TGF-β pathway. Its inhibition may reduce the synthesis of EMC components. Imatinib interferes with PDGF signalling by blocking the tyrosine kinase activity of PDGFR (Alfiya et al., Arthritis Rheum., 2009, 60: 219). The study design is presented on FIG. 7.

In series [3] the test system is bleomycin-induced pulmonary fibrosis. Nature of the series: Bleomycin-induced pulmonary fibrosis model, late treatment (Day 7 to 20). Format: in vivo, C57BL/6J mice. Conditions: mean±SD, Day 21. An excerpt:
Protocol to Examine the Effects of anti-human CLDN1 Monoclonal Antibody in Treating Fibrosis in a Bleomycin-Induced Pulmonary Fibrosis Model. Pathogen-free 6 weeks old female C57BL/6Jmice will be obtained from Japan SLC, Inc. (Japan). […] The mice were transferred to a clean cage (resting cage) and kept until recovery from anesthesia. The bleomycin administration took place on two separate days, with equal numbers of mice assigned to each day. […] Mice groups. […] Survival, biochemical and histological analysis. […] Lung hydroxyproline content was assessed according to a routine method. Statistical tests. Statistical tests were performed using Kruskal-Wallis test.

The subject of series [4] is UUO-induced renal interstitial fibrosis. Nature of the series: Unilateral ureteral obstruction (UUO)-induced renal interstitial fibrosis. The format is in vivo. The protocol: Test Substances. A murinized version of an anti CLDN1 mAb was synthetized at the Inventors' laboratory and used in the present study. […] To prepare dosing solution, the anti-CLDN1 mAb was diluted with a saline solution used as vehicle. Telmisartan (Micardis®) was purchased from Boehringer Ingelheim GmbH (Germany) and dissolved in pure water.
Unilateral Ureteral Obstruction (UUO) Surgery. On Day 0, UUO surgery was performed under three types of mixed anesthetic agents (medetomidine, midazolam, butorphanol). After shaving the hair, the abdomen was cut open and the left ureter was exteriorized. The ureter was ligated by 4-0 silk sutures at two points. The peritoneum and the skin were closed with sutures, and the mice were transferred to a clean cage and kept until recovery from anesthesia.
Route of Drug Administration. The anti-CLDN1 mAb was administered intraperitoneally at a volume of 100 μL/mouse. Telmisartan was administered orally at a volume of 10 μL/mouse.
Treatment Doses. The anti-CLDN1 mAb was administered at a dose of 500 μg/100 μL/mouse. Telmisartan was administered at a dose of 30 mg/kg once daily.
Animals. Seven-week-old female C57BL/6J mice were obtained from Japan SLC, Inc. (Japan). Animals were housed and fed with a normal diet (CE-2; CLEA Japan, Japan) under controlled conditions. All animals used in the study were housed and cared for in accordance with the Japanese Pharmacological Society Guidelines for Animal Use. The animals were maintained in a SPF facility under controlled conditions of temperature (23±3° C.), humidity (50±20%), lighting (12-hour artificial light and dark cycles; light from 8:00 to 20:00) and air exchange. A high pressure was maintained in the experimental room to prevent contamination of the facility. The animals were housed in TPX cages (CLEA Japan) with a maximum of 4 mice per cage. Sterilized Paper-Clean (Japan SLC) was used for bedding and replaced once a week.
Measurement of Plasma Biochemistry. For plasma biochemistry, non-fasting blood was collected in polypropylene tubes with anticoagulant (Novo-Heparin, Mochida Pharmaceutical Co. Ltd., Japan) and centrifuged at 1,000×g for 15 minutes at 4° C. The supernatant was collected and stored at −80° C. until use. Plasma urea nitrogen was measured by FUJI DRI-CHEM 7000 (Fujifilm, Japan).
Measurement of Kidney Biochemistry. To quantify kidney hydroxyproline content, frozen left kidney samples were processed by an alkaline-acid hydrolysis method as follows. Kidney samples were dissolved in 2N NaOH at 65° C., and autoclaved at 121° C. for 20 minutes. The lysed samples (150 μL) were acid-hydrolyzed with 150 μL of 6N HCl at 121° C. for 20 minutes, and neutralized with 150 μL of 4N NaOH containing 10 mg/mL activated carbon. AC buffer (2.2M acetic acid/0.48M citric acid, 150 μL) was added to the samples, followed by centrifugation to collect the supernatant. A standard curve of hydroxyproline was constructed with serial dilutions of trans-4-hydroxy-L-proline (Sigma-Aldrich, USA) starting at 16 μg/mL. The prepared samples and standards (each 400 μL) were mixed with 400 μL chloramine T solution (Nacalai Tesque Inc., Japan) and incubated for 25 minutes at room temperature. The samples were then mixed with Ehrlich's solution (400 μL) and heated at 65° C. for 20 minutes for color development. After samples were cooled on ice and centrifuged to remove precipitates, the optical density of each supernatant was measured at 560 nm. The concentrations of hydroxyproline were calculated from the hydroxyproline standard curve. Protein concentrations of kidney samples were determined using a BCA protein assay kit (Thermo Fisher Scientific, USA) and used to normalize the calculated hydroxyproline values. Kidney hydroxyproline contents were expressed as μg per mg protein.
Histopathological Analyses. For PAS staining, sections were cut from paraffin blocks and stained with Schiff's reagent (Wako Pure Chemical Industries) according to the manufacturer's instructions. […]

Series [5] concerns the target T1, human Claudin-1 (CLDN1) (human, UniProt O95832 1-211).
T1 construct: whole, on cells; Tight junction membrane protein; endogenously expressed on the cell lines, primary cells and tissues used; also called CLDNA
T1 sequence (looked up): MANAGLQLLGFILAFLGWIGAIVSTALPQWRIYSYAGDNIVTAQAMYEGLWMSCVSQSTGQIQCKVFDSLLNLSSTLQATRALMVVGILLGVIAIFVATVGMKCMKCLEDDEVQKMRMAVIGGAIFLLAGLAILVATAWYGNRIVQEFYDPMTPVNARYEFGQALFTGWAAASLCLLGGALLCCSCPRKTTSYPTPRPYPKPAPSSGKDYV
Nature of the series: flow cytometry on A549 lung cells, PE median fluorescence, Michaelis-Menten fit. The protocol:
(§1) FIG. 4. Binding Properties of Humanized CLDN1-specific MAbs Targeting CLDN1 Expressed on Kidney RPTEC/TERT1 and Lung A549 Cell Lines. Cells were incubated with increasing concentrations of humanized H3L3 CLDN1-specific mAb, as indicated. Representative histograms show binding of humanized H3L3 CLDN1-specific mAb at the saturation point for each specific cells line: (A) RPTEC/TERT1 (50 μg/mL) and (B) A549 (20 μg/mL). Binding was measured by flow cytometry after incubation with PE-labelled anti-human and analyzed with Cytoflex and FlowJo V10. […] The graphs show binding of humanized H3L3 CLDN1-specific mAb until the saturation point for each specific cell line.
(§2) Binding Studies. Cells were de-attached using a solution of EDTA (4 mM) and re-suspended in PBS containing 1% FBS at 4° C. Then, 150,000 cells were incubated with increasing concentrations of the humanized H3L3 CLDN1-specific mAb (see WO/2017/162678) and the binding signals were read by flow cytometry after incubation with PE-labelled anti-human using a dilution of 1:100 and analyzed with Cytoflex and FlowJo V10. Two washes with PBS containing 1% FBS were performed after every antibody incubation. A binding curve for each cell line was built using the PE median fluorescence intensity (MFI) and the Kd of the interaction was calculated by applying the Michaelis-Menten mathematical model in R 3.5.1.
In general terms: A flow cytometer gives signals particle by particle.

The target in series [6] is T1, human Claudin-1 (CLDN1). Nature of the series: flow cytometry on RPTEC/TERT1 kidney cells, PE median fluorescence, Michaelis-Menten fit. The procedure: as §1, §2
The nature of series [7]: Antibody biodistribution in mice (Alexa-fluor 750 label, ex vivo organ fluorescence). Details: species or system Balb/c mice. The conditions noted are these: 500 μg i.p.; organs harvested at 24 hours and 48 hours. The protocol:
Reagents and Antibodies. The anti-Claudin-1 monoclonal antibody (anti-CLDN1 mAb-OM-7D3-B3) was produced as previously described (Fofana et al., Gastroenterology, 2010, 139: 953-964, e1-4). Control mAb (rat IgG2b clone LTF-25, Bio X Cell) was also used.
Antibody biodistribution. The antibodies were labeled with Alexa-fluor 750 (RD-Biotech, Besangon, France). Eight week-old Balb/c mice were injected intraperitoneally with 500 μg of Alexa-fluor 750-labeled CLDN1-specific or control mAb. Organs were harvested 24 hours and 48 hours as previously described (Krieger et al., Hepatology, 2010, 51: 1144-1157) and ex vivo organ-specific fluorescence was detected with an IVIS Lumina 50 (Xenogen-Caliper-Perkin-Elmer) and expressed as average efficiency.
Statistical Analyses. The Mann-Whitney test was used. A p-value <0.05 was considered significant. Statistical analyzes were performed with GraphPad Prism 6 software.

Setting [8] is: kidney sections versus Vehicle group.

As usually defined, the Kd is the constant that tells how readily two partners part at equilibrium. A higher Kd goes with weaker binding.

Structures can show the parent of a compound that is named as a salt.

As to `C[C@@H]1C[C@H]2[C@@H]3CCC4=CC(=O)C=C[C@]4(C)[C@@]3(F)[C@@H](O)C[C@]2(C)[C@@]1(O)C(=O)CO` [Dexamethasone], in series [1] (18 mice per group), the “mice found dead before reaching Day 21” value is recorded as “Ten out of 18”. Further, the “survival rate compared with Vehicle group” value in series [1] (Kaplan-Meier, Log Rank Test) is “significant decrease”.
For the molecule `Cc1ccc(NC(=O)c2ccc(CN3CCN(C)CC3)cc2)cc1Nc1nccc(-c2cccnc2)n1` [Imatinib, Imatinib mesylate], the dermal thickness result in series [2] (HE staining) is on record as “significant decrease”. For the same molecule, in series [2] (Masson staining), the skin fibrosis area entry was “significant decrease”.
For the molecule `COC(=O)c1ccc2c(c1)NC(=O)/C2=C(\Nc1ccc(N(C)C(=O)CN2CCN(C)CC2)cc1)c1ccccc1` [Nintedanib], the lung hydroxyproline levels in series [3] is on record as 51.3±9.0.
`CCCc1nc2c(C)cc(-c3nc4ccccc4n3C)cc2n1Cc1ccc(-c2ccccc2C(=O)O)cc1` [Telmisartan] gave a Sirius red-positive area in series [4] (fibrosis area, mean ± S.D., n = 8) of 2.44 ± 1.19%. Also, in series [4] (setting [8]), the “inflammatory cell infiltration, F4/80 immunostaining” value is “lower than that in the Vehicle group” and the “inflammatory cell infiltration, PAS staining” value was “lower than in the Vehicle group”. Also, the Kidney hydroxyproline in series [4] (left kidney, mean ± S.D., n = 8) came to 6.19 ± 2.31 μg/mg total protein. Besides, in series [4] (mean ± S.D., n = 8), the Right kidney weight is 139 ± 9 mg. In series [4] (mouse, in vivo), this molecule yielded a Body weight of 18.7 ± 1.1 g and a Plasma urea nitrogen of 33.9 ± 5.2 mg/dL. The molecule further showed a Left kidney weight in series [4] (obstructed kidney, mean ± S.D., n = 8) of 630 ± 160 mg.

B1: humanized H3L3 CLDN1-specific mAb (antibody, V domains shown)
VH: QVQLVESGGGVVQPGRSLRLSCLGSGFSFSSYGMNWVRQAPGKGLEWVASISPSGSYFYYADSVKGRFTISRDNSKNTLYLQMTSLRAEDTAIYYCARLPGFNPPFDHWGQGTLVTVSS
VL: DIQMTQSPSSLSASVGDRVTITCKASQNVGGNVDWYQWKPGKAPKLLIYGASNRYTGVPDRFRGSGSGTDFTLTISSLQPEDVATYYCLQYKNNPWTFGGGTKVEIK
notes: also called anti-CLDN1 mAb H3L3; humanized anti-CLDN1 mAb
On to B1, for which the equilibrium dissociation constant (Kd) was 16.3 nM in series [5] and 53 nM in series [6].

B2: OM-7D3-B3: rat monoclonal antibody against human Claudin-1 secreted by hybridoma DSM ACC2938; VH SEQ ID NO: 1, VL SEQ ID NO: 2 (antibody, V domains shown)
VH: EVQLVESGGGLVQPGRSLKLSCLGSGFSFSSYGMNWIRQAPGKGLEWVASISPSGSYFYYADSVKGRFTISRENAKNTLYLQMTSLRAEDTALYYCARLPGFNPPFDHWGQGVVVTVSS
VL: NTVMTQSPTSMFMSVGDRVTMNCKASQNVGGNVDWYQWKPGQSPKLLMYGASNRYTGVPDRFRGSGSGTDFTLTISNMQTEDLAVYYCLQYKNNPWTFGGGTKVELK
modifications: variable heavy chain of OM-7D3-B3; variable light chain of OM-7D3-B3
For the molecule B2, the “organ enrichment of labeled antibody versus control mAb” value in series [7] is “enrichment in the anti-CLDN1 monoclonal antibody was observed in skin, kidneys, lungs, intestines and liver”.
